ChEMBL document CHEMBL3390834, “Development of second generation epigenetic agents” (Medchemcomm, 2012)

Target: Histone deacetylase 2 (Homo sapiens, UniProt Q92769)
Assay: Inhibition of recombinant human HDAC-2 expressed in baculovirus infected insect Sf9 cells using Fluor de Lys as substrate preincubated for 2 hrs followed by substrate addition measured after 10 mins by fluorescence assay

Sequence of Histone deacetylase 2 (Q92769 whole entry): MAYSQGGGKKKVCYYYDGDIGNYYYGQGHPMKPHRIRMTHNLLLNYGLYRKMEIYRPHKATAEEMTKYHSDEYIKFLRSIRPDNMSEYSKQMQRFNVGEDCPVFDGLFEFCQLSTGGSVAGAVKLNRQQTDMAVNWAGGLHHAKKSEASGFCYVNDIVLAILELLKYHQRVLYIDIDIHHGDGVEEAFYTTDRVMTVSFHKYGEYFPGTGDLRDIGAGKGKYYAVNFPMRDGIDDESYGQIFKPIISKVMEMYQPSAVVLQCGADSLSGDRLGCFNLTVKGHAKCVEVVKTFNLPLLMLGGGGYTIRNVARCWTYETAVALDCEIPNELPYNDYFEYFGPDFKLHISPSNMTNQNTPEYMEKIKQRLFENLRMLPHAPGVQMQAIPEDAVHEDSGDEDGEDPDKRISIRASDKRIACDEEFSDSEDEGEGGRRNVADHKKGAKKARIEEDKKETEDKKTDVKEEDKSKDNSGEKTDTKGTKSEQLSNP

Ki: 16 nM
Compound: CCCCc1nc2cc(/C=C/C(=O)NO)ccc2n1CCN(CC)CC [PRACINOSTAT]
